According to patent publication US20220273716A1, “POPULATIONS OF NATURAL KILLER CELLS COMPRISING A CD38 CHIMERIC ANTIGEN RECEPTOR” (Celularity Inc., priority 2019, published 2022):
Entries after “also recorded” stand apart in the source; their conditions may differ. Like-named read-outs stand apart in the source and are kept apart here.

What was measured:
CD34 cells = test: CD34 cell expansion at Day 14 of the culture; format: cell-based, human; conditions: compound 10 μM
Protocol: (§1) For biological testing, the compounds were provided to culture to evaluate their effects on NK cell expansion and differentiation. Specifically, donors of CD34+ cells (StemCell Technology) were thawed and expanded in vitro following NK culture protocol. During the first 14 days of the culture, each CRL compounds was dissolved in DMSO and added to the culture at 10 μM concentration. SR1 (at 10 μM) served as a positive control compound, while DMSO alone without any compound served as a negative control. At the end of the culture on Day 35, cell expansion, natural killer (NK) cell differentiation and cytotoxicity of the cells against K562 tumor cell line were characterized. Due to the large number of the compounds, the testing was performed in two experiments, CRL1-11 and CRL 12-22. The same donors were used for each experiment. Positive and negative controls were also included in both experiments.

CD34+ cells [1] = test: NK cell expansion from CD34+ cells in three-stage culture with compound; format: cell-based, human; conditions: for expansion, differentiation and cytotoxicity profile versus SR1: PNK-007 culture; for support of NK expansion (and differentiation) / cell expansion compared to SR1: compound 10 μM during first 14 days, Day 35; for cell expansion compared to SR1: SR1 10 μM positive control
Source text: (§2) UCB CD34+ cells were cultivated in presence of cytokines including thrombopoietin, SCF, Flt3 ligand, IL-7, IL-15 and IL-2 for 35 days to produce three-stage NK cells, as described in Example 1. Multi-color flow cytometry was used to determine the phenotypic characteristics of three-stage NK cells.
as §1

multiple myeloma = conditions: cited from earlier work
CD34+ cells [2] = test: NK cell differentiation of compound cultured cells (flow cytometry); format: cell-based, human; conditions: compared to SR1
Source text: as §2, §1

K562 tumor cells = test: Cytotoxicity assay of compound cultured cells against K562 tumor cells; format: cell-based; conditions: 10:1 E:T ratio, both donors
Protocol: as §1
Cytotoxicity assay was run using compound cultured cells against K562 tumor cells at 10:1 effector to target ratio (FIG. 5) to evaluate cell functions.

SMILES	CD34 cell expansion (CD34 cells)	expansion, differentiation and cytotoxicity profile versus SR1 (CD34+ cells [1])	support of NK expansion (and differentiation) (CD34+ cells [1])	cell expansion compared to SR1 (CD34+ cells [1])	CD56+/CD11a+ subpopulation (CD34+ cells [2])	killing activity compared to cells cultured with SR1 (K562 tumor cells)	also measured
N#Cc1cncc(-c2nc(NCCc3c[nH]c4ccccc34)c3occc3n2)c1 [CRL22, 5-(4-((2-(1H-indol-3-yl)ethyl)amino)furo[3,2-d]pyrimidin-2-yl)nicotinonitrile]	achieved the highest CD34 cell expansion	very similar expansion, differentiation and cytotoxicity profiles as SR1	supported cell expansion the best				
CCC(C)Nc1nc(NCCc2c[nH]c3ccccc23)c2ccccc2n1 (stereo not drawn) [CRL13, N^4-(2-(1H-indol-3-yl)ethyl)-N^2-(sec-butyl)quinazoline-2,4-diamine]			Except for CRL7 and CRL13, the rest of the compounds all resulted in a NK expansion; also recorded: all the compounds except CRL7 and CRL13 supported PNK-007 expansion and differentiation				
CCC(C)Nc1cc(-c2cncc(C#N)c2)nc(NCCc2c[nH]c3ccccc23)n1 (stereo not drawn) [CRL7, 5-(2-((2-(1H-indol-3-yl)ethyl)amino)-6-(sec-butylamino)pyrimidin-4-yl)nicotinonitrile]			Except for CRL7 and CRL13, the rest of the compounds all resulted in a NK expansion; also recorded: all the compounds except CRL7 and CRL13 supported PNK-007 expansion and differentiation				
Nc1cccc2c1CN(C1CCC(=O)NC1=O)C2=O (stereo not drawn) [lenalidomide, 3-(4′aminoisoindoline-1′-one)-1-piperidine-2,6-dione]							ORR (VGPR or better) (multiple myeloma; 1 year post ASCT): 48%; ORR (VGPR or better) (multiple myeloma; 2 year post ASCT): 36%; hazard ratio (TTP, vs placebo) (multiple myeloma; 95% CI 0.46-0.71): 0.57; median TTP (multiple myeloma; not accounting for crossover): 57.3 months
CC(C)c1csc2c(NCCc3c[nH]c4ccccc34)nc(-c3cncc(F)c3)nc12 [CRL18, N-(2-(1H-indol-3-yl)ethyl)-2-(5-fluoropyridin-3-yl)-7-isopropylthieno[3,2-d]pyrimidin-4-amine]				slightly less expansion compared to SR1	increased CD56+/CD11a+ subpopulation	increased killing activities	
CC(C)c1csc2c(NCCc3c[nH]c4ccccc34)nc(-c3cncc(C#N)c3)nc12 [CRL17, 5-(4-((2-(1H-indol-3-yl)ethyl)amino)-7-isopropylthieno[3,2-d]pyrimidin-2-yl)nicotinonitrile]				slightly less expansion compared to SR1	increased CD56+/CD11a+ subpopulation	increased killing activities	
Fc1cncc(-c2nc(NCCc3c[nH]c4ccccc34)c3occc3n2)c1 [CRL19, N-(2-(1H-indol-3-yl)ethyl)-2-(5-fluoropyridin-3-yl)furo[3,2-d]pyrimidin-4-amine]	achieved the highest CD34 cell expansion	very similar expansion, differentiation and cytotoxicity profiles as SR1	supported cell expansion the best				
Cc1cncc(-c2nc(NCCc3c[nH]c4ccccc34)c3occc3n2)c1 [CRL20, N-(2-(1H-indol-3-yl)ethyl)-2-(5-methylpyridin-3-yl)furo[3,2-d]pyrimidin-4-amine]	achieved the highest CD34 cell expansion	very similar expansion, differentiation and cytotoxicity profiles as SR1	supported cell expansion the best				
Cc1cncc(-c2nc(NCCc3c[nH]c4ccccc34)c3scc(C(C)C)c3n2)c1 [CRL21, N-(2-(1H-indol-3-yl)ethyl)-7-isopropyl-2-(5-methylpyridin-3-yl)thieno[3,2-d]pyrimidin-4-amine]				slightly less expansion compared to SR1	increased CD56+/CD11a+ subpopulation	increased killing activities	
